Measurements: the NIST ThermoML archive (doi:10.1016/j.jct.2009.05.006)
Numbers after ± are expanded uncertainties.

Legend:
[1] = excess molar enthalpy (molar enthalpy of mixing); xn = mol fraction of the nth substance listed; settings: 298.15 K, 101 kPa, Liquid, Calvet calorimetry
[2] = xn = mol fraction of the nth substance listed; settings: 298.15 K, 101 kPa, Liquid, Vibrating tube method

BrCCCCBr [1,4-dibromobutane] + CCCCOC(=O)CC
Settings	excess molar enthalpy [kcal/mol]	mass density [kg/m3]
[1], x2 = 0.0509	0.00574 ± 0.000239	–
[1], x2 = 0.1183	0.00621 ± 0.000239	–
[1], x2 = 0.196	0.00287 ± 0.000239	–
[1], x2 = 0.275	-0.00239 ± 0.000239	–
[1], x2 = 0.3518	-0.00765 ± 0.000239	–
[1], x2 = 0.4473	-0.0131 ± 0.000478	–
[1], x2 = 0.4843	-0.0151 ± 0.000478	–
[1], x2 = 0.5517	-0.0163 ± 0.000478	–
[1], x2 = 0.6323	-0.017 ± 0.000478	–
[1], x2 = 0.7319	-0.016 ± 0.000478	–
[1], x2 = 0.8302	-0.0124 ± 0.000478	–
[1], x2 = 0.9193	-0.0086 ± 0.000239	–
[2], x1 = 0.0993	–	1702.4 ± 0.89
[2], x1 = 0.1484	–	1647.38 ± 0.83
[2], x1 = 0.2006	–	1590.44 ± 0.77
[2], x1 = 0.2485	–	1539.57 ± 0.72
[2], x1 = 0.307	–	1478.88 ± 0.66
[2], x1 = 0.3593	–	1426.19 ± 0.61
[2], x1 = 0.4138	–	1372.46 ± 0.56
[2], x1 = 0.4767	–	1312.32 ± 0.5
[2], x1 = 0.5324	–	1260.38 ± 0.46
[2], x1 = 0.5968	–	1201.95 ± 0.41
[2], x1 = 0.6549	–	1150.66 ± 0.36
[2], x1 = 0.721	–	1093.83 ± 0.32
[2], x1 = 0.787	–	1038.79 ± 0.27
[2], x1 = 0.8544	–	984.01 ± 0.24
[2], x1 = 0.9302	–	924.33 ± 0.24

BrCCCCBr [1,4-dibromobutane] + CCCCOC(C)=O
Settings	excess molar enthalpy [kcal/mol]	mass density [kg/m3]
[1], x2 = 0.0576	0.00335 ± 0.000239	–
[1], x2 = 0.135	0.00574 ± 0.000239	–
[1], x2 = 0.2211	0.00621 ± 0.000239	–
[1], x2 = 0.3056	0.00359 ± 0.000239	–
[1], x2 = 0.3729	-0.000956 ± 0.000239	–
[1], x2 = 0.4291	-0.00621 ± 0.000239	–
[1], x2 = 0.4798	-0.0124 ± 0.000478	–
[1], x2 = 0.4866	-0.0158 ± 0.000478	–
[1], x2 = 0.5277	-0.0186 ± 0.000478	–
[1], x2 = 0.5406	-0.021 ± 0.000478	–
[1], x2 = 0.603	-0.0234 ± 0.000478	–
[1], x2 = 0.6715	-0.0237 ± 0.000478	–
[1], x2 = 0.7464	-0.0222 ± 0.000478	–
[1], x2 = 0.8416	-0.0155 ± 0.000478	–
[1], x2 = 0.9307	-0.00717 ± 0.000239	–
[2], x1 = 0.06	–	1754.15 ± 0.94
[2], x1 = 0.1131	–	1699.34 ± 0.88
[2], x1 = 0.1633	–	1648.18 ± 0.83
[2], x1 = 0.2229	–	1588.24 ± 0.77
[2], x1 = 0.2748	–	1536.73 ± 0.72
[2], x1 = 0.3886	–	1426 ± 0.61
[2], x1 = 0.4426	–	1374.38 ± 0.56
[2], x1 = 0.5	–	1320.28 ± 0.51
[2], x1 = 0.6216	–	1207.87 ± 0.41
[2], x1 = 0.6806	–	1154.38 ± 0.37
[2], x1 = 0.8076	–	1041.44 ± 0.28
[2], x1 = 0.8633	–	992.97 ± 0.25
[2], x1 = 0.9298	–	935.67 ± 0.25

BrCCCCBr [1,4-dibromobutane] + CCCCOC=O
Settings	excess molar enthalpy [kcal/mol]	mass density [kg/m3]
[1], x2 = 0.0646	0.0177 ± 0.000478	–
[1], x2 = 0.1478	0.0315 ± 0.000717	–
[1], x2 = 0.2392	0.0423 ± 0.000956	–
[1], x2 = 0.3291	0.0488 ± 0.0012	–
[1], x2 = 0.4058	0.0504 ± 0.0012	–
[1], x2 = 0.4726	0.0488 ± 0.0012	–
[1], x2 = 0.5295	0.0466 ± 0.000956	–
[1], x2 = 0.5817	0.0435 ± 0.000956	–
[1], x2 = 0.6425	0.0387 ± 0.000956	–
[1], x2 = 0.7078	0.033 ± 0.000717	–
[1], x2 = 0.7787	0.0253 ± 0.000717	–
[1], x2 = 0.8648	0.0165 ± 0.000478	–
[1], x2 = 0.9404	0.00669 ± 0.000239	–
[2], x2 = 0.0702	–	1756.08 ± 0.94
[2], x2 = 0.1221	–	1708.91 ± 0.89
[2], x2 = 0.1836	–	1652.89 ± 0.83
[2], x2 = 0.241	–	1600.45 ± 0.78
[2], x2 = 0.3018	–	1544.61 ± 0.72
[2], x2 = 0.4249	–	1431.07 ± 0.61
[2], x2 = 0.4765	–	1383.26 ± 0.57
[2], x2 = 0.5374	–	1326.55 ± 0.52
[2], x2 = 0.6529	–	1218.52 ± 0.42
[2], x2 = 0.7677	–	1110.31 ± 0.33
[2], x2 = 0.8248	–	1056.19 ± 0.29
[2], x2 = 0.8824	–	1001.42 ± 0.25
[2], x2 = 0.9353	–	950.88 ± 0.25

BrCCCCCBr [1,5-dibromopentane] + CCCCOC=O
Settings	excess molar enthalpy [kcal/mol]	mass density [kg/m3]
[1], x2 = 0.0868	0.0232 ± 0.000478	–
[1], x2 = 0.1853	0.0394 ± 0.000956	–
[1], x2 = 0.2872	0.0531 ± 0.0012	–
[1], x2 = 0.3842	0.0598 ± 0.00143	–
[1], x2 = 0.4656	0.0605 ± 0.00143	–
[1], x2 = 0.5328	0.0578 ± 0.0012	–
[1], x2 = 0.5803	0.0557 ± 0.0012	–
[1], x2 = 0.6291	0.0521 ± 0.0012	–
[1], x2 = 0.7084	0.0447 ± 0.000956	–
[1], x2 = 0.7902	0.0332 ± 0.000717	–
[1], x2 = 0.8713	0.0215 ± 0.000478	–
[1], x2 = 0.9437	0.0112 ± 0.000478	–
[2], x2 = 0.0756	–	1642.01 ± 0.82
[2], x2 = 0.1366	–	1599.08 ± 0.77
[2], x2 = 0.2027	–	1551.59 ± 0.73
[2], x2 = 0.2682	–	1503.58 ± 0.68
[2], x2 = 0.3259	–	1460.47 ± 0.64
[2], x2 = 0.3871	–	1413.8 ± 0.59
[2], x2 = 0.4492	–	1365.54 ± 0.55
[2], x2 = 0.5143	–	1313.85 ± 0.5
[2], x2 = 0.5679	–	1270.35 ± 0.46
[2], x2 = 0.6274	–	1221.19 ± 0.42
[2], x2 = 0.687	–	1170.94 ± 0.38
[2], x2 = 0.7958	–	1076.48 ± 0.3
[2], x2 = 0.8434	–	1033.97 ± 0.27
[2], x2 = 0.9499	–	936.18 ± 0.25
